What was measured:
MDA-MB-231 = experiment: Antiproliferative activity against human MDA-MB-231 cells assessed as cell growth inhibition incubated for 5 days by MTT assay; assay type: functional, cell-based; conditions: MDA-MB-231, 120 h
[1] = Plasma stability in human assessed as compound remaining at 100 uM measured after 30 mins by LC-MS/MS analysis relative to control; assay type: ADME, cell-free; conditions: read-out: Stability
[2] = Metabolic stability in human liver microsomes assessed as half-life at 100 uM measured upto 60 mins in the presence of NADPH by LC-MS/MS analysis; assay type: ADME, Microsome
[3] = Metabolic stability in human liver microsomes assessed as compound remaining at 100 uM measured after 60 mins in the presence of NADPH by LC-MS/MS analysis; assay type: ADME, Microsome; conditions: read-out: Stability
[4] = Metabolic stability in human liver microsomes assessed as compound remaining at 100 uM measured after 60 mins by LC-MS/MS analysis; assay type: ADME, Microsome; conditions: read-out: Stability
CYP1A2 = biological target: T1, CYP1A2 (Homo sapiens, UniProt P05177); experiment: Inhibition of CYP1A2 in human liver microsomes at 10 uM preincubated for 10 mins followed by addition of NADPH-regenerating system and measured after 15 mins by LC-MS/MS analysis relative to control; assay type: ADME, Microsome; conditions: time 25 min
T1 sequence (P05177 whole entry): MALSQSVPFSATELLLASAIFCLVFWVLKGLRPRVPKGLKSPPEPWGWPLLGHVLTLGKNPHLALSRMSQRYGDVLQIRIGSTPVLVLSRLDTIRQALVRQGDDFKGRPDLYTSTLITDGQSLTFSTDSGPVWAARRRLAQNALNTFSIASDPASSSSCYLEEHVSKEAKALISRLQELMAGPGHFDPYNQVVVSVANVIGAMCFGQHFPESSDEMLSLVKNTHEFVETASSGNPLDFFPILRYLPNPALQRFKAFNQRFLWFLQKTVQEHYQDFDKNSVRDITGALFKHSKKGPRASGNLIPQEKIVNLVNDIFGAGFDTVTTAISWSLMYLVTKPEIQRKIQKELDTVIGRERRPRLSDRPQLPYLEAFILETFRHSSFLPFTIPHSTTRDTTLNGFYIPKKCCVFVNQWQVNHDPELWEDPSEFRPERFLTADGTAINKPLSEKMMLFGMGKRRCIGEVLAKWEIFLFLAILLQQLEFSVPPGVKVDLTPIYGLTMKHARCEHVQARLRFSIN

CYP3A4 = CYP3A4 (Homo sapiens, UniProt P08684); experiment: Inhibition of CYP3A4 in human liver microsomes at 10 uM preincubated for 10 mins followed by addition of NADPH-regenerating system and measured after 15 mins by LC-MS/MS analysis relative to control; assay type: ADME, Microsome; conditions: time 25 min
Sequence of CYP3A4 (P08684 whole entry): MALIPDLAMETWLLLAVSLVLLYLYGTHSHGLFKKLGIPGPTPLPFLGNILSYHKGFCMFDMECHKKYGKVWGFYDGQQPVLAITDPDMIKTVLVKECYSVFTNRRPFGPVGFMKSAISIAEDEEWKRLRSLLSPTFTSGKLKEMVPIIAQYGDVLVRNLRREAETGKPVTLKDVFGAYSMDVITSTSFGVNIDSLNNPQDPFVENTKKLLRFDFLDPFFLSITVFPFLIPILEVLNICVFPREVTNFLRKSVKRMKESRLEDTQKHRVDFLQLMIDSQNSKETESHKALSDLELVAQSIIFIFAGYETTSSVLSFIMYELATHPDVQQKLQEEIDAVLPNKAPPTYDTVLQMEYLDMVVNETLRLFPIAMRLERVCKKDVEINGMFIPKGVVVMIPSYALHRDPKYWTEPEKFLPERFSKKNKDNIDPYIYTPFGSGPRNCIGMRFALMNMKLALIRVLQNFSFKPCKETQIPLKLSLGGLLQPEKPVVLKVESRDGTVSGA

[5] = Half-life in Sprague-Dawley rat at 10 mg/kg, po by LC-MS/MS analysis; assay type: ADME, organism-based; conditions: in vivo
[6] = Cmax in Sprague-Dawley rat at 10 mg/kg, po by LC-MS/MS analysis; assay type: ADME, organism-based; set-up: dose 10 mg/kg, route po; conditions: in vivo
[7] = AUClast in Sprague-Dawley rat at 10 mg/kg, po by LC-MS/MS analysis; assay type: ADME, organism-based; set-up: time 0 - last, dose 10 mg/kg, route po; conditions: in vivo
[8] = AUCinfinity in Sprague-Dawley rat at 10 mg/kg, po by LC-MS/MS analysis; assay type: ADME, organism-based; set-up: time infinity, dose 10 mg/kg, route po; conditions: in vivo
[9] = AUCinfinity in Sprague-Dawley rat at 3 mg/kg, iv by LC-MS/MS analysis; assay type: ADME, organism-based; set-up: time infinity, dose 3 mg/kg, route iv; conditions: in vivo
[10] = Clearance in Sprague-Dawley rat at 3 mg/kg, iv by LC-MS/MS analysis; assay type: ADME, organism-based; conditions: in vivo
[11] = Volume of distribution at steady state in Sprague-Dawley rat at 3 mg/kg, iv by LC-MS/MS analysis; assay type: ADME, organism-based; conditions: in vivo, read-out: Vdss
MCF7 [12] = experiment: Induction of apoptosis in human MCF7 cells assessed as late apoptotic cells at 2.5 uM incubated for 48 hrs by Annexin-V-FITC/PI staining based flow cytometric analysis (reference value: 0.019 %); assay type: functional
MCF7 [13] = experiment: Induction of apoptosis in human MCF7 cells assessed as early apoptotic cells at 1 uM incubated for 48 hrs by Annexin-V-FITC/PI staining based flow cytometric analysis (reference value: 2.83 %); assay type: functional
MCF7 [14] = experiment: Induction of apoptosis in human MCF7 cells assessed as late apoptotic cells at 1 uM incubated for 48 hrs by Annexin-V-FITC/PI staining based flow cytometric analysis (reference value: 0.019 %); assay type: functional
MCF7 [15] = experiment: Induction of apoptosis in human MCF7 cells assessed as necrotic cells at 1 uM incubated for 48 hrs by Annexin-V-FITC/PI staining based flow cytometric analysis (reference value: 0.18 %); assay type: functional
MCF7 [16] = experiment: Induction of apoptosis in human MCF7 cells assessed as viable cells at 0.50 uM incubated for 48 hrs by Annexin-V-FITC/PI staining based flow cytometric analysis (reference value: 97 %); assay type: functional; conditions: dose 0.5 µM
MCF7 [17] = experiment: Induction of apoptosis in human MCF7 cells assessed as early apoptotic cells at 0.50 uM incubated for 48 hrs by Annexin-V-FITC/PI staining based flow cytometric analysis (reference value: 2.83 %); assay type: functional; conditions: dose 0.5 µM
MCF7 [18] = experiment: Induction of apoptosis in human MCF7 cells assessed as necrotic cells at 0.50 uM incubated for 48 hrs by Annexin-V-FITC/PI staining based flow cytometric analysis (reference value: 0.18 %); assay type: functional; conditions: dose 0.5 µM
MCF7 [19] = experiment: Induction of apoptosis in human MCF7 cells assessed as viable cells at 0.25 uM incubated for 48 hrs by Annexin-V-FITC/PI staining based flow cytometric analysis (reference value: 97 %); assay type: functional
MCF7 [20] = experiment: Induction of apoptosis in human MCF7 cells assessed as late apoptotic cells at 0.10 uM incubated for 48 hrs by Annexin-V-FITC/PI staining based flow cytometric analysis (reference value: 0.019 %); assay type: functional; conditions: dose 0.1 µM
MCF7 [21] = experiment: Induction of apoptosis in human MCF7 cells assessed as necrotic cells at 0.10 uM incubated for 48 hrs by Annexin-V-FITC/PI staining based flow cytometric analysis (reference value: 0.18 %); assay type: functional; conditions: dose 0.1 µM
MCF7 [22] = experiment: Induction of apoptosis in human MCF7 cells assessed as total apoptotic cells at 0.25 uM incubated for 48 hrs by Annexin-V-FITC/PI staining based flow cytometric analysis relative to control; assay type: functional
MCF7 [23] = experiment: Induction of apoptosis in human MCF7 cells assessed as total apoptotic cells at 1 uM incubated for 48 hrs by Annexin-V-FITC/PI staining based flow cytometric analysis relative to control; assay type: functional
MCF7 [24] = experiment: Induction of cell cycle arrest in human MCF7 cells assessed as S phase cells at 2.5 uM measured after 48 hrs by flow cytometry analysis (reference value: 9.31 %); assay type: functional
MCF7 [25] = experiment: Induction of cell cycle arrest in human MCF7 cells assessed as less G1 phase cells at 2.5 uM measured after 48 hrs by flow cytometry analysis (reference value: 0.44 %); assay type: functional
MCF7 [26] = experiment: Induction of cell cycle arrest in human MCF7 cells assessed as decrease in G1 phase cells at 1 uM measured after 48 hrs by flow cytometry analysis (reference value: 56.9 %); assay type: functional; set-up: scale not given: the % may be the effect or the level left
MCF7 [27] = experiment: Induction of cell cycle arrest in human MCF7 cells assessed as S phase cells at 0.25 uM measured after 48 hrs by flow cytometry analysis (reference value: 9.31 %); assay type: functional
MCF7 [28] = experiment: Induction of cell cycle arrest in human MCF7 cells assessed as S phase cells at 0.10 uM measured after 48 hrs by flow cytometry analysis (reference value: 9.31 %); assay type: functional; conditions: dose 0.1 µM

Work on Cc1cc(Nc2nc(NCc3ccc(F)cc3F)nc3c2cnn3C2CCOCC2)n[nH]1 yielded an IC50 (MDA-MB-231) of 2.88 µM, a remaining at 0.5 h, 100 µM [1] of 96.6% and a half-life at 100 µM [2] of 0.493 h. For the same molecule, the remaining at 1 h, 100 µM [3] was 25.2%, the remaining at 1 h, 100 µM [4] was 106% and the inhibition at 0.25 h, 10 µM (CYP1A2) was 21.2%. It also gave an inhibition at 0.25 h, 10 µM (CYP3A4) of 0%, a half-life [5] of 1.75 h and a Cmax [6] of 81.1 ng/mL. The AUC(0-t) [7] was 286 ng·h/mL, the AUC(0-inf) [8] was 301 ng·h/mL and the AUC(0-inf) [9] was 1070 ng·h/mL. The clearance [10] was 47.2 mL/min/kg, the Vd [11] was 3.02 L/kg and the Activity (MCF7 [12]) was 10.8%. It also gave an Activity (MCF7 [13]) of 65%, an Activity (MCF7 [14]) of 6.84% and an Activity (MCF7 [15]) of 0.69%. For the same molecule, the Activity (MCF7 [16]) was 32.2%, the Activity (MCF7 [17]) was 59.7% and the Activity (MCF7 [18]) was 0.56%. The Activity (MCF7 [19]) was 67.1%, the Activity (MCF7 [20]) was 4.74% and the Activity (MCF7 [21]) was 1.15%. For the same molecule, the Activity (MCF7 [22]) was 30.98%, the Activity (MCF7 [23]) was 71.84% and the Activity (MCF7 [24]) was 21.6%. For the same molecule, the Activity (MCF7 [25]) was 0.39%, the Activity (MCF7 [26]) was 21.5% and the Activity (MCF7 [27]) was 10.67%. The Activity (MCF7 [28]) was 7.46%.
